In publication PMC8958504 (Journal of Medicinal Chemistry, 2022):
Where “and” joins values, the source holds several entries; their conditions need not be identical. Identical values can stand only once. Entries after “also recorded” stand apart in the source; their conditions may differ.

Experiments:
[1] = Oxygen radical absorbance capacity (ORAC-FL) assay; conditions: trolox = 1.0
adult mice NSCs = experiment: Neurogenic studies in SGZ-derived neurospheres; format: cell-based, mouse; conditions: 10 μM
Procedure: Adult mice NSCs were isolated from SGZ of the dentate gyrus of the hippocampus and grown as free-floating neurospheres (NS).[72],[78] The neurogenic potential of each compound was determined using fluorescence confocal microscopy by quantifying the expression of two well-known neuronal markers: human β-III-tubulin (TuJ-1 clone) and microtubule-associated protein 2 (MAP-2). TuJ-1 is expressed in immature neurons, whereas the expression of MAP-2 indicates a consolidated mature neuronal stage.[79] Given that neurogenesis involves not only the proliferation of NSC but also the migration of newly generated cells, the greatest migration distance promoted by each compound was also measured (Figure 8).
Adult male C57BL/6 mice (3 months old) were used in order to determine neurogenesis activity. […] DAPI staining was used as a nuclear marker. Fluorescent representative images were acquired with a Nikon fluorescence microscope 90i coupled to a digital camera Qi. The microscope configuration was adjusted to produce the optimum signal-to-noise ratio. […] Quantification was undertaken using the image analySIS software (Soft Imaging System Corp., Münster, Germany) and normalized to total nuclei (DAPI-stained). The intensity of immunostaining of neurites from TuJ1-labeled cells and the number of MAP-2-positive cells were estimated from nine neurospheres per condition over three independent experiments. The outgrowth of the neurosphere cells was examined under a phase-contrast microscope and the farthest distance of cell migration was calculated from the edge of the sphere. At least 10 plated neurospheres per treatment were analyzed.

Thermodynamic solubility = format: physicochemical; conditions: phosphate buffer pH 7.4
[2] = In vitro glutathione conjugation (LC-IT-MS); format: in vitro ADME; conditions: 100 μM, GSH 1 mM, with or without GST, 37 °C, 1 h
Procedure: As the control, nonenzymatic reaction (mixture lacking GST) was also performed.
The reaction was maintained at 37 °C for 1 h. As a control, the nonenzymatic reaction mixture (mixture lacking GST) was incubated for 1 h at 37 °C. The reactions were stopped by adding 100 μL of 20% trifluoroacetic acid. The samples were prepared for analysis by adding 400 μL of a 50:50 mixture of MeOH/CH3CN. The reaction mixtures were analyzed using an API QSTAR pulsar I LC–MS/MS system (Applied Biosystems, Madrid, Spain) equipped with an electrospray ionization source and connected to a LC system 1100 series (Agilent Technologies, Madrid, Spain). […] The LC-IT-MS was operated in the positive ion mode.

mouse hippocampal slices = conditions: 1 μM, OA 1 μM, 6 h
Procedure: Once the treatment was ended, the cell viability was measured by the MTT method, cell death with the fluorescent probe PI (1 μg/mL), and ROS production with the fluorescent probe H2DCFDA (10 μL/mL).
(§1) Fluorescence from whole slices was measured as the mean intensity with an inverted Nikon eclipse T2000-U microscope (Nikon Instruments). […] The results were normalized to the basal condition, which was considered as 100%. Image analysis was performed using Fiji software.

p65 = experiment: Western blotting of p65 in hippocampal slices exposed to OA; format: cell-based, mouse; conditions: hippocampal slices treated with OA
Description: (§2) As iNOS can be produced through the NF-κB (nuclear factor kappa-light-chain-enhancer of activated B cells) pathway, we analyzed the levels of p65, one of the components that form the NF-κB transcription factor family.[82] […] We also measured HO-1, an inducible enzyme transcribed by NRF2, known for its anti-inflammatory, antioxidant, and neuroprotective effects. […] NRF2 and NF-κB signaling pathways cooperate to maintain the physiological homeostasis of cellular redox status and to regulate the cellular response to stress and inflammation.[19],[83] […] This last mechanism could be related to our resveratrol-based MTDL 4e.
(§3) After acute treatment, the hippocampal slices were lysed in a cold AKT lysis buffer (137 mM NaCl, 20 mM NaF, 10% glycerol, 20 mM Tris–HCl, 1% Nonidet P-40, 1 μg/mL leupeptin, 1 mM phenylmethylsulfonylfluoride, 1 mM sodium pyrophosphate, and 1 mM Na3VO4, pH 7.5). The total protein in each sample was quantified using the Pierce BCA protein kit (Thermo Fisher). 20 μg of protein was resolved by sodium dodecyl sulfate polyacrylamide gel electrophoresis (SDS-PAGE) and transferred to Immobilon-P PVDF membranes (Millipore Corp.). […] The membranes were washed, incubated with ECL WB Kit (GE Healthcare, Amersham), and exposed using a ChemiDoc MP system (Bio-Rad Laboratories) for the visualization of the specific bands, which were then analyzed with Fiji software.

HO-1 = experiment: Western blotting of HO-1 in hippocampal slices exposed to OA; format: cell-based, mouse; conditions: hippocampal slices treated with OA
Description: as §2, §3

[3] = tested on: mice hippocampal organotypic cultures; experiment: Organotypic hippocampal culture, chronic OA treatment; format: cell-based, mouse; conditions: 1 μM, OA 10 nM, 72 h
Procedure: 6–10 days old mice (C57BL/6j) were sacrificed, and hippocampi were carefully removed in Hank’s balanced salt solution (HBBS). 300 μm slices were cut and placed in 0.4 μm culture inserts (Merck-Millipore, Germany) and stabilized for 24 h at 37 °C in neurobasal media (Gibco, Invitrogen) supplemented with 10% FBS (Gibco, Invitrogen). […] Finally, cell death and ROS production were determined with the fluorescent probes PI (1 μg/mL) and H2DCFDA (10 μg/mL), respectively.
as §1

In the case of C#CCn1nc(/C=C/c2ccc(OC)cc2)oc1=O [4e, 5-[(E)-2-(4-Methoxyphenyl)ethenyl]-3-(prop-2-yn-1-yl)-1,3,4-oxadiazol-2(3H)-one], the “ORAC (trolox equiv)” value [1] is reported as under 0.1 trolox equiv, the “TuJ-1 and MAP-2 marked cells” value (adult mice NSCs) is reported as “clearly increased; also recorded: highest expression of young cells (TuJ-1) and mature neurons (MAP-2)” and the cell migration distance (adult mice NSCs) is reported as “extended; also recorded: greatest distance of cell migration”. For the same compound, the solubility thermodynamic (Thermodynamic solubility) was 76.1 µM and 19.5 µg/mL, the GSH adduct formation [2] was “no peaks corresponding to GS-4e adducts were found” and the “ROS production (H2DCFDA)” value (mouse hippocampal slices) was “reduced ROS production to basal levels”. The “cell viability (MTT)” value (mouse hippocampal slices) was “significantly increased the cell viability to almost basal levels”, the p65 level (p65) was “slightly reduced p65 below to the basal value” and the HO-1 level (HO-1) was “further increased”. For the same compound, the “ROS production (H2DCFDA)” value [3] was “significantly decrease ROS production to basal levels; also recorded: significantly reduced ROS production” and the “cell death (PI mean intensity)” value [3] was “reduced hippocampal death with a statistical trend (p = 0.07); also recorded: reduce cell death; although the differences were not statistically significant”.
